Here are results for 27 compounds from patent publication US10988459B2 (priority 2015, dated 2021).

The structures appear in SMILES notation.

This assay addresses human RIP1 kinase domain (2-375) (Homo sapiens (Human), UniProt Q13546). In words: biochemical. In kind it is biochemical. The note with it: tight-binding apparent inhibition constant; human RIP1 kinase domain (2-375) 50 nM, 50 uM ATP, 2 hours; read-out: Ki. The gist of the method:
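50 nM purified kinase domain from baculovirus-infected insect cells, incubated 2 h with compound in 50 mM Hepes pH 7.5, 30 mM MgCl2, 1 mM DTT, 50 uM ATP, 0.002% Brij-35, 0.5% DMSO. ADP formation read by Transcreener FP at 633 nm excitation. Ki^app fitted with the Morrison tight-binding equation.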

Chain of human RIP1 kinase domain (2-375) (Q13546 2-375): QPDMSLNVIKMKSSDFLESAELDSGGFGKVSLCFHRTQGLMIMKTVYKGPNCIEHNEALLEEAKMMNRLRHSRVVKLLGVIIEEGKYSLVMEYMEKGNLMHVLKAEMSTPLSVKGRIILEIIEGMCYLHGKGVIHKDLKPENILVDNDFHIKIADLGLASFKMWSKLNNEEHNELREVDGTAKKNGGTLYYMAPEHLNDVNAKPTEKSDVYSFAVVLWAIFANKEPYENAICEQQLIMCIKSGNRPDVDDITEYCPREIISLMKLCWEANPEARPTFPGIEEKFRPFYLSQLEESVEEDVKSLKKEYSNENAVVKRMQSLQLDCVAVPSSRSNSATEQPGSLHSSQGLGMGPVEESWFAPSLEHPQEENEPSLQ

Take `CN1C(=O)[C@@H](NC(=O)c2nc3cccc(-c4cc(F)ccc4F)n3n2)CCn2nccc21` [Example 382, (S)-5-(2,5-difluorophenyl)-N-(4-methyl-5-oxo-5,6,7,8-tetrahydro-4H-pyrazolo[1,5-a][1,3]diazepin-6-yl)-[1,2,4]triazolo[1,5-a]pyridine-2-carboxamide]: the Ki came to 0.0131 µM.

With `CCC1CCCc2nc(C(=O)N[C@H]3COc4ccccc4N(C)C3=O)nn21` (stereo partly drawn) [Example 383, 5-ethyl-N—((S)-5-methyl-4-oxo-2,3,4,5-tetrahydrobenzo[b][1,4]oxazepin-3-yl)-5,6,7,8-tetrahydro-[1,2,4]triazolo[1,5-a]pyridine-2-carboxamide], the Ki is 0.0295 µM.

As to `CN1C(=O)[C@@H](NC(=O)c2nc3cccc(-c4ccccc4F)n3n2)CCn2nccc21` [Example 386, (S)-5-(2-fluorophenyl)-N-(4-methyl-5-oxo-5,6,7,8-tetrahydro-4H-pyrazolo[1,5-a][1,3]diazepin-6-yl)-[1,2,4]triazolo[1,5-a]pyridine-2-carboxamide], the Ki was 0.0148 µM.

As for `CN1C(=O)[C@@H](NC(=O)c2nc3n(n2)C(c2ccccc2F)CCC3)CCn2nccc21` (stereo partly drawn) [Example 387, 5-(2-fluorophenyl)-N—((S)-4-methyl-5-oxo-5,6,7,8-tetrahydro-4H-pyrazolo[1,5-a][1,3]diazepin-6-yl)-5,6,7,8-tetrahydro-[1,2,4]triazolo[1,5-a]pyridine-2-carboxamide], the Ki was 0.1 µM.

For the compound `CN1C(=O)[C@@H](NC(=O)c2nc3n(n2)C(c2cc(F)ccc2F)CCC3)CCn2nccc21` (stereo partly drawn) [Example 388, 5-(2,5-difluorophenyl)-N—((S)-4-methyl-5-oxo-5,6,7,8-tetrahydro-4H-pyrazolo[1,5-a][1,3]diazepin-6-yl)-5,6,7,8-tetrahydro-[1,2,4]triazolo[1,5-a]pyridine-2-carboxamide], the Ki was determined as 0.124 µM. The same measure for `CN1C(=O)[C@@H](NC(=O)c2nc3cccc(-c4ccoc4)n3n2)CCn2nccc21` [Example 389, (S)-5-(furan-3-yl)-N-(4-methyl-5-oxo-5,6,7,8-tetrahydro-4H-pyrazolo[1,5-a][1,3]diazepin-6-yl)-[1,2,4]triazolo[1,5-a]pyridine-2-carboxamide]: 0.173 µM; for `CN1C(=O)[C@@H](NC(=O)c2nc3n(n2)C(C2CCOC2)CCC3)CCn2nccc21` (stereo partly drawn) [Example 390, N—((S)-4-methyl-5-oxo-5,6,7,8-tetrahydro-4H-pyrazolo[1,5-a][1,3]diazepin-6-yl)-5-(tetra hydrofuran-3-yl)-5,6,7,8-tetrahydro-[1,2,4]triazolo[1,5-a]pyridine-2-carboxamide]: 3 µM. Regarding `CN1C(=O)[C@@H](NC(=O)c2nc3cccc(-c4ccccc4)c3s2)COc2ccccc21` [Example 391, (S)—N-(5-methyl-4-oxo-2,3,4,5-tetrahydrobenzo[b][1,4]oxazepin-3-yl)-7-phenylbenzo[d]thiazole-2-carboxamide], the Ki came out at 0.0658 µM. Consider `CN1C(=O)[C@@H](NC(=O)c2nc3cccc(-c4ccccc4)c3s2)CCn2nccc21` [Example 392, (S)—N-(4-methyl-5-oxo-5,6,7,8-tetrahydro-4H-pyrazolo[1,5-a][1,3]diazepin-6-yl)-7-phenylbenzo[d]thiazole-2-carboxamide], for which the Ki is 0.0963 µM. Take `CN1C(=O)[C@@H](NC(=O)c2nc3cccc(-c4cnn(C)c4)n3n2)CCn2nccc21` [Example 393, (S)-5-(1-methyl-1H-pyrazol-4-yl)-N-(4-methyl-5-oxo-5,6,7,8-tetrahydro-4H-pyrazol-[1,5-a][1,3]diazepin-6-yl)-[1,2,4]triazolo[1,5-a]pyridine-2-carboxamide]: the Ki came to 0.463 µM. The same measure for `CN1C(=O)[C@@H](NC(=O)c2nc3cccc(-c4c(F)cccc4F)n3n2)CCn2nccc21` [Example 394, (S)-5-(2,6-difluorophenyl)-N-(4-methyl-5-oxo-5,6,7,8-tetrahydro-4H-pyrazolo[1,5-a][1,3]diazepin-6-yl)-[1,2,4]triazolo[1,5-a]pyridine-2-carboxamide]: 0.00604 µM; for `CN1C(=O)[C@@H](NC(=O)c2nc3cccc(C4=CCOCC4)n3n2)CCn2nccc21` [Example 395, (S)-5-(3,6-dihydro-2H-pyran-4-yl)-N-(4-methyl-5-oxo-5,6,7,8-tetrahydro-4H-pyrazolo[1,5-a][1,3]diazepin-6-yl)-[1,2,4]triazolo[1,5-a]pyridine-2-carboxamide]: 0.104 µM. The same measure for `CN1C(=O)[C@@H](NC(=O)c2nc3n(n2)C(c2c(F)cccc2F)CCC3)CCn2nccc21` (stereo partly drawn) [Example 396, 5-(2,6-difluorophenyl)-N—((S)-4-methyl-5-oxo-5,6,7,8-tetrahydro-4H-pyrazolo[1,5-a][1,3]diazepin-6-yl)-5,6,7,8-tetrahydro-[1,2,4]triazolo[1,5-a]pyridine-2-carboxamide]: 0.152 µM. With `CN1C(=O)[C@@H](NC(=O)c2nc3n(n2)C(c2cnn(C)c2)CCC3)CCn2nccc21` (stereo partly drawn) [Example 397, 5-(1-methyl-1H-pyrazol-4-yl)-N—((S)-4-methyl-5-oxo-5,6,7,8-tetrahydro-4H-pyrazolo[1,5-a][1,3]diazepin-6-yl)-5,6,7,8-tetrahydro-[1,2,4]triazolo[1,5-a]pyridine-2-carboxamide], the Ki turned out to be 0.709 µM. Take `CN1C(=O)[C@@H](NC(=O)c2nc3cccc(-c4cnn(C)c4)n3n2)COc2ccccc21` [Example 398, (S)-5-(1-methyl-1H-pyrazol-4-yl)-N-(5-methyl-4-oxo-2,3,4,5-tetrahydrobenzo[b][1,4]oxazepin-3-yl)-[1,2,4]triazolo[1,5-a]pyridine-2-carboxamide]: the Ki came to 0.036 µM. Take `CN1C(=O)[C@@H](NC(=O)c2nc3cccc(-c4ccoc4)n3n2)COc2ccccc21` [Example 399, (S)-5-(furan-3-yl)-N-(5-methyl-4-oxo-2,3,4,5-tetrahydrobenzo[b][1,4]oxazepin-3-yl)-[1,2, 4]triazolo[1,5-a]pyridine-2-carboxamide]: the Ki turned out to be 0.0045 µM.

Consider `CN1C(=O)[C@@H](NC(=O)c2nc3cccc(C4CCOCC4)n3n2)COc2ccccc21` [Example 405, (S)—N-(5-methyl-4-oxo-2,3,4,5-tetrahydrobenzo[b][1,4]oxazepin-3-yl)-5-(tetrahydro-2H-pyran-4-yl)-[1,2,4]triazolo[1,5-a]pyridine-2-carboxamide], for which the Ki is 0.0356 µM.

Turning to `CC(C)c1cccc2nc(C(=O)N[C@H]3COc4ccccc4N(C)C3=O)nn12` [Example 406, (S)-5-isopropyl-N-(5-methyl-4-oxo-2,3,4,5-tetrahydrobenzo[b][1,4]oxazepin-3-yl)-[1,2,4]triazolo[1,5-a]pyridine-2-carboxamide], the Ki was determined as 0.00472 µM.

Take `CN1C(=O)[C@@H](NC(=O)c2nc3n(n2)C(C2CCOCC2)CCC3)COc2ccccc21` (stereo partly drawn) [Example 408, N—((S)-5-methyl-4-oxo-2,3,4,5-tetrahydrobenzo[b][1,4]oxazepin-3-yl)-5-(tetrahydro-2H-pyran-4-yl)-5,6,7,8-tetrahydro-[1,2,4]triazolo[1,5-a]pyridine-2-carboxamide]: the Ki was 0.147 µM. For the compound `O=C(N[C@H]1COc2cc(F)cc(F)c2NC1=O)c1nc2cccc(C(F)(F)F)n2n1` [Example 417, (S)—N-(6,8-difluoro-4-oxo-2,3,4,5-tetrahydrobenzo[b][1,4]oxazepin-3-yl)-5-(trifluoromethyl)-[1,2,4]triazolo[1,5-a]pyridine-2-carboxamide], the Ki was 0.0365 µM.

`O=C(N[C@H]1CCc2cc(F)cc(F)c2NC1=O)c1nc2cccc(C(F)(F)F)n2n1` [Example 418, (S)—N-(7,9-difluoro-2-oxo-2,3,4,5-tetrahydro-1H-benzo[b]azepin-3-yl)-5-(trifluoromethyl)-[1,2,4]triazolo[1,5-a]pyridine-2-carboxamide]: the Ki was found to be 0.0343 µM. For `Cc1cc(F)c2c(c1)OC[C@H](NC(=O)c1nc3cccc(C(F)(F)F)n3n1)C(=O)N2` [Example 419, (S)—N-(6-fluoro-8-methyl-4-oxo-2,3,4,5-tetrahydrobenzo[b][1,4]oxazepin-3-yl)-5-(trifluoromethyl)-[1,2,4]triazolo[1,5-a]pyridine-2-carboxamide], the Ki is 0.0094 µM. The same measure for `CC(C)c1cccc2nc(C(=O)N[C@H]3CCc4cc(F)cc(F)c4NC3=O)nn12` [Example 420, (S)—N-(7,9-difluoro-2-oxo-2,3,4,5-tetrahydro-1H-benzo[b]azepin-3-yl)-5-isopropyl-[1,2,4]triazolo[1,5-a]pyridine-2-carboxamide]: 0.00471 µM; for `Cn1cc(-c2cccc3nc(C(=O)N[C@H]4COc5cc(F)cc(F)c5NC4=O)nn23)cn1` [Example 421, (S)—N-(6,8-difluoro-4-oxo-2,3,4,5-tetrahydrobenzo[b][1,4]oxazepin-3-yl)-5-(1-methyl-1H-pyrazol-4-yl)-[1,2,4]triazolo[1,5-a]pyridine-2-carboxamide]: 0.0159 µM; for `O=C(N[C@H]1COc2cc(F)cc(F)c2NC1=O)c1nc2cccc(C3CCOCC3)n2n1` [Example 422, (S)—N-(6,8-difluoro-4-oxo-2,3,4,5-tetrahydrobenzo[b][1,4]oxazepin-3-yl)-5-(tetrahydro-2H-pyran-4-yl)-[1,2,4]triazolo[1,5-a]pyridine-2-carboxamide]: 0.0274 µM.

As to `Cc1cc(F)c2c(c1)OC[C@H](NC(=O)c1nc3cccc(C(C)C)n3n1)C(=O)N2` [Example 423, (S)—N-(6-fluoro-8-methyl-4-oxo-2,3,4,5-tetrahydrobenzo[b][1,4]oxazepin-3-yl)-5-isopropyl-[1,2,4]triazolo[1,5-a]pyridine-2-carboxamide], the Ki came out at 0.0034 µM. For `CC(C)c1cccc2nc(C(=O)N[C@H]3COc4cc(F)cc(F)c4NC3=O)nn12` [Example 424, (S)—N-(6,8-difluoro-4-oxo-2,3,4,5-tetrahydrobenzo[b][1,4]oxazepin-3-yl)-5-isopropyl-[1,2,4]triazolo[1,5-a]pyridine-2-carboxamide], the Ki was determined as 0.003 µM.
